{
  "source": "paper PMC12675671",
  "about": "(Nature Communications, 2025)",
  "origin": "cited, not measured here",
  "tested_on": "WT LRRK2",
  "data": [
    {"smiles": "COc1cc(C(=O)N2CCC(N3CCN(C)CC3)CC2)ccc1Nc1ncc2c(n1)N(C)c1ccccc1C(=O)N2C", "note": "[LRRK2-IN-1]", "values": [
      {"measurement": "pIC50 (experimental values), WT", "result": 8.509}
    ]}
  ]
}
